Converted amounts (≈) assume the structure as drawn. The source made the active and inactive calls. The calls are words filed in the database; no cut-off is given here.
Key:
[1] = test system: Staphylococcus aureus; assay: Antibacterial activity against Staphylococcus aureus ATCC 25923 incubated for 18 to 24 hrs by broth microdilution method; type: functional; settings: time 18-24 hrs
[2] = test system: Staphylococcus aureus; assay: Antibacterial activity against Staphylococcus aureus ATCC 29213 incubated for 18 to 24 hrs by broth microdilution method; type: functional; settings: time 18-24 hrs
[3] = test system: Staphylococcus aureus; assay: Antibacterial activity against methicillin-resistant Staphylococcus aureus ATCC 33591 incubated for 18 to 24 hrs by broth microdilution method; type: functional; settings: time 18-24 hrs
[4] = test system: Staphylococcus aureus; assay: Antibacterial activity against methicillin-resistant Staphylococcus aureus ATCC 33591 incubated for 18 to 24 hrs in presence of 1 mg/ml of trypsin by broth microdilution method; type: functional; settings: time 18-24 hrs
[5] = test system: Staphylococcus aureus; assay: Antibacterial activity against methicillin-resistant Staphylococcus aureus ATCC 33591 incubated for 18 to 24 hrs in presence of 2 mg/ml of trypsin by broth microdilution method; type: functional; settings: time 18-24 hrs
[6] = test system: Staphylococcus aureus; assay: Antibacterial activity against methicillin-resistant Staphylococcus aureus ATCC 33591 incubated for 18 to 24 hrs in presence of 1 mg/ml of pepsin by broth microdilution method; type: functional; settings: time 18-24 hrs
[7] = test system: Staphylococcus aureus; assay: Antibacterial activity against methicillin-resistant Staphylococcus aureus ATCC 33591 incubated for 18 to 24 hrs in presence of 2 mg/ml of pepsin by broth microdilution method; type: functional; settings: time 18-24 hrs
[8] = test system: Staphylococcus aureus; assay: Antibacterial activity against methicillin-resistant Staphylococcus aureus ATCC 33591 assessed as fold change in MIC incubated for 18 to 24 hrs in presence of 10 percent mouse serum by broth microdilution method; type: functional; settings: time 18-24 hrs
[9] = test system: Staphylococcus aureus; assay: Synergistic bactericidal activity against persistent methicillin-resistant Staphylococcus aureus ATCC 33591 incubated for 18 to 24 hrs in presence of imipenem by time-kill assay; type: functional, organism-based; settings: time 18-24 hrs
[10] = test system: Staphylococcus aureus; assay: Induction of drug resistance in methicillin-resistant Staphylococcus aureus ATCC 33591 at sub-MIC measured after 15 passages; type: functional, organism-based
[11] = test system: Staphylococcus aureus; assay: Inhibition of imipenem-induced drug resistance in […] Staphylococcus aureus ATCC 33591 at sub-MIC measured upto 15 passages; type: functional, organism-based
[12] = test system: Staphylococcus aureus; assay: Antibacterial activity against gentamicin-resistant methicillin-resistant Staphylococcus aureus ATCC 33591 incubated for 18 to 24 hrs; type: functional; settings: time 18-24 hrs
[13] = test system: Staphylococcus aureus; assay: Synergistic antibacterial activity against methicillin-resistant Staphylococcus aureus ATCC 33591 assessed as fractional inhibitory concentration index upto 2 times MIC incubated for 18 to 24 hrs in presence of polymyxin B by checkerboard assay; type: functional; settings: time 18-24 hrs
[14] = test system: Staphylococcus aureus; assay: Destruction of cell membrane in methicillin-resistant Staphylococcus aureus ATCC 33591 assessed as increase in red fluorescence intensity incubated for 2 hrs by PI staining based analysis; type: functional, organism-based
[15] = test system: Staphylococcus aureus; assay: Induction of morphological changes in methicillin-resistant Staphylococcus aureus ATCC 33591 assessed as characteristic membrane rupture at 4 times MIC incubated for 2 hrs by SEM analysis; type: functional, organism-based
[16] = test system: Staphylococcus aureus; assay: Induction of ROS production in methicillin-resistant Staphylococcus aureus ATCC 33591 at 4 times MIC measured upto 360 mins in presence of NAC by DCFH-DA dye based analysis; type: functional, organism-based
[17] = Toxicity in Balb/c mouse assessed as survival rate at 20 mg/kg, ip measured after 7 days; type: organism-based; settings: in vivo, time 7 day
[18] = Toxicity in Balb/c mouse assessed as body weight change at 20 to 80 mg/kg, ip measured after 7 days; type: organism-based; settings: in vivo, 168 h, dose 20-80 mg/kg, time 7 day
[19] = Toxicity in Balb/c mouse assessed as organ edema at 20 to 80 mg/kg, ip measured after 7 days; type: organism-based; settings: in vivo, 168 h, dose 20-80 mg/kg, time 7 day
[20] = Toxicity in Balb/c mouse assessed as spleen pigmentation at 80 mg/kg, ip measured after 7 days; type: organism-based; settings: in vivo, 168 h, time 7 day
[21] = Toxicity in Balb/c mouse assessed as change in serum ALT level at 20 to 80 mg/kg, ip measured after 7 days; type: organism-based; settings: in vivo, 168 h, dose 20-80 mg/kg, time 7 day
[22] = Toxicity in Balb/c mouse assessed as change in serum CREA level at 80 mg/kg, ip measured after 7 days; type: organism-based; settings: in vivo, 168 h, time 7 day
[23] = Toxicity in Balb/c mouse assessed as cell swelling in liver at 80 mg/kg, ip measured after 7 days by H and E staining based analysis; type: organism-based; settings: in vivo, 168 h, time 7 day
[24] = Toxicity in Balb/c mouse assessed as inflammatory cell infiltration in liver at 80 mg/kg, ip measured after 7 days by H and E staining based analysis; type: organism-based; settings: in vivo, 168 h, time 7 day
[25] = test system: Staphylococcus aureus; assay: Antibacterial activity against methicillin-resistant Staphylococcus aureus ATCC 33591 infected in Balb/c mouse model of acute systemic infection assessed as reduction in bacterial count in lung at 10 mg/kg, ip measured after 5 days; type: functional, organism-based; settings: time 5.0 day
[26] = test system: Staphylococcus aureus; assay: Antibacterial activity against methicillin-resistant Staphylococcus aureus ATCC 33591 infected in Balb/c mouse model of acute systemic infection assessed as reduction in bleeding in heart at 10 mg/kg, ip measured after 5 days by H and E staining based analysis; type: functional, organism-based; settings: time 5.0 day
[27] = test system: Staphylococcus aureus; assay: Antibacterial activity against methicillin-resistant Staphylococcus aureus ATCC 33591 infected in Balb/c mouse model of acute systemic infection assessed as reduction in cell swelling in liver at 10 mg/kg, ip measured after 5 days by H and E staining based analysis; type: functional, organism-based; settings: time 5.0 day
[28] = test system: Staphylococcus aureus; assay: Antibacterial activity against methicillin-resistant Staphylococcus aureus ATCC 33591 infected in Balb/c mouse model of acute systemic infection assessed as reduction in follicular structure loss in spleen at 10 mg/kg, ip measured after 5 days by H and E staining based analysis; type: functional, organism-based; settings: time 5.0 day
[29] = test system: Staphylococcus aureus; assay: Antibacterial activity against methicillin-resistant Staphylococcus aureus ATCC 33591 infected in Balb/c mouse model of acute systemic infection assessed as reduction in hemorrhage in lung at 10 mg/kg, ip measured after 5 days by H and E staining based analysis; type: functional, organism-based; settings: time 5.0 day
[30] = test system: Staphylococcus aureus; assay: Antibacterial activity against methicillin-resistant Staphylococcus aureus ATCC 33591 infected in Balb/c mouse model of acute systemic infection assessed as reduction in inflammatory cell infiltration in kidney at 10 mg/kg, ip measured after 5 days by H and E staining based analysis; type: functional, organism-based; settings: time 5.0 day
[31] = test system: Staphylococcus aureus; assay: Antibacterial activity against methicillin-resistant Staphylococcus aureus ATCC 33591 infected in Balb/c mouse model of acute systemic infection assessed as reduction in bleeding in kidney at 10 mg/kg, ip measured after 5 days by H and E staining based analysis; type: functional, organism-based; settings: time 5.0 day
[32] = test system: Staphylococcus aureus; assay: Antibacterial activity against methicillin-resistant Staphylococcus aureus ATCC 33591 infected in Balb/c mouse model of skin wound infection assessed as reduction in IL-1beta activity in skin at 10 mg/kg, ip administered thrice at 1, 24 and 48 hrs post-infection measured after 14 days by IHC analysis; type: functional, organism-based; settings: time 14.0 day
[33] = test system: Staphylococcus aureus; assay: Antibacterial activity against methicillin-resistant Staphylococcus aureus ATCC 33591 infected in Balb/c mouse model of skin wound infection assessed as reduction in IL-1beta activity in skin at 10 mg/kg, ip administered thrice at 1, 24 and 48 hrs post-infection measured after 14 days in presence of polymyxin B by IHC analysis; type: functional, organism-based; settings: time 14.0 day
[34] = test system: Staphylococcus aureus; assay: Antibacterial activity against methicillin-resistant Staphylococcus aureus ATCC 33591 infected in Balb/c mouse model of skin wound infection assessed as reduction in keratosis in wound surface at 10 mg/kg, ip administered thrice at 1, 24 and 48 hrs post-infection measured after 14 days in presence of polymyxin B by IHC analysis; type: functional, organism-based; settings: time 14.0 day

## CCCCCCCCCCCC(=O)N[C@H](CCCNC(=N)N)C(=O)N[C@H](CCCNC(=N)N)C(=O)N[C@H](Cc1c[nH]c2ccccc12)C(=O)O
[1]
  MIC: 4 µM (≈ 2.8 µg/mL)
[2]
  MIC: 4 µM (≈ 2.8 µg/mL)
[3]
  MIC: 4 µM (≈ 2.8 µg/mL)
[4]
  MIC: 4 µM
[5]
  MIC: 4 µM
[6]
  MIC: 8 µM
[7]
  MIC: 8 µM
[8]
  fold change (FC): 8
[9]
  Activity: Dose-dependent-effect
[10]
  Activity: inactive
[11]
  inhibition: Active
[12]
  MIC: 8 µM (≈ 5.59 µg/mL)
[13]
  fractional inhibitory concentration index (FICI): 0.125
[14]
  Activity: Dose-dependent-effect
[15]
  Activity: Active
[16]
  Activity: inactive
[17]
  survival at 168 h: 62.5%
[18]
  Activity: Non-toxic
[19]
  Activity: Toxic
[20]
  Activity: Toxic
[21]
  Activity: Non-toxic
[22]
  Activity: Toxic
[23]
  Activity: Toxic
[24]
  Activity: Toxic
[25]
  Activity: Active
[26]
  Activity: Active
[27]
  Activity: Active
[28]
  Activity: Active
[29]
  Activity: Active
[30]
  Activity: Active
[31]
  Activity: Active
[32]
  Activity: Active
[33]
  Activity: Active
[34]
  Activity: Active

Source: ChEMBL document CHEMBL6114969, “Ultra-short lipopeptides containing d-amino acid exhibiting excellent stability and antibacterial activity against gram-positive bacteria” (Eur J Med Chem, 2025)
